Test results reported in ChEMBL document CHEMBL3137667, “[Drug-induced liver injury; fourteenth updated edition of the bibliographic database of liver injuries and related drugs]” (Gastroenterol Clin Biol, 2004).

Experiments:
[1] = Highest frequency of moderate liver toxicity observed during clinical trials, expressed as a percentage. [column '% BIOL' in source]; settings: human
[2] = Highest frequency of acute liver toxicity observed during clinical trials, expressed as a percentage. [column '% AIGUE' in source]; settings: human
[3] = Presence of at least one case with successful reintroduction. [column 'REINT' in source]; settings: human
[4] = Times to onset, minimal and maximal, observed in the indexed observations. [column 'DELAI' in source]; settings: human
[5] = human, serum
[6] = human, serum; remark: listed apart in the source
[7] = human
[8] = human; remark: listed apart in the source
[9] = human; remark: listed apart in the source
[10] = human, serum, 4383 h
[11] = human; remark: listed apart in the source
[12] = human; remark: listed apart in the source
[13] = human; remark: listed apart in the source
[14] = human; remark: listed apart in the source
[15] = human; remark: listed apart in the source
[16] = human; remark: listed apart in the source
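Throughout, for Hepatotoxicity (association with vascular disease): count of indexed literature references reporting vascular liver injury in humans, e.g. peliosis hepatitis, hepatic veno-occlusive disease or Budd-Chiari syndrome.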
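Throughout, for Hepatotoxicity (benign tumour): value is a count of indexed literature references citing a benign tumour confirmed by histopathology.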
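Throughout, for Hepatotoxicity (choleostasis): human cholestatic liver injury, shown by histopathology or by peak ALT or AST elevation over alkaline phosphatase ratio below 2, value counts indexed literature reports.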
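Throughout, for Hepatotoxicity (chronic liver disease): chronic liver injury confirmed by histopathology or persistently raised serum aminotransferase activity beyond 6 months, value given as the count of indexed literature references.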
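Throughout, for Hepatotoxicity (cirrhosis): value is a count of indexed literature references reporting cirrhosis confirmed by histopathology.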
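Throughout, for Hepatotoxicity (cytolytic): human cytolytic liver injury, shown by histopathology or by a ratio above 5 of peak ALT or AST elevation to alkaline phosphatase elevation, value counts indexed references.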
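Throughout, for Hepatotoxicity (granulomatous hepatitis): value is a count of indexed literature references reporting granulomatous liver disease confirmed by histopathology.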
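Throughout, for Hepatotoxicity (malignant tumour): malignant tumour confirmed by histopathology, value gives the count of indexed literature references reporting it.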
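Throughout, for Hepatotoxicity (severe hepatitis): human clinical data: severe hepatitis, meaning potentially life-threatening liver failure or clinically observed cases, the value counts how many indexed literature references report it.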
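Throughout, for Hepatotoxicity (steatosis): steatosis confirmed by histopathology, value is the count of indexed references.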

Compound	Hepatotoxicity (moderate) [1] [%]	Hepatotoxicity (acute) [2] [%]	Hepatotoxicity (successful reintroduction) [3]	Hepatotoxicity (time to onset) [4]	Hepatotoxicity (moderate) [5]	Hepatotoxicity (acute) [6]	Hepatotoxicity (cytolytic) [7]	Hepatotoxicity (choleostasis) [8]	Hepatotoxicity (severe hepatitis) [9]	Hepatotoxicity (chronic liver disease) [10]	Hepatotoxicity (cirrhosis) [11]	Hepatotoxicity (granulomatous hepatitis) [12]	Hepatotoxicity (association with vascular disease) [13]	Hepatotoxicity (steatosis) [14]	Hepatotoxicity (malignant tumour) [15]	Hepatotoxicity (benign tumour) [16]
C=C(CC)C(=O)c1ccc(OCC(=O)O)c(Cl)c1Cl [ETHACRYNIC ACID]	0	0	yes	2 weeks - 4 weeks	0	2	2	0	2	0	0	0	0	0	0	0
CC(=O)Oc1ccc(C(=C2CCCCC2)c2ccc(OC(C)=O)cc2)cc1 [CYCLOFENIL]	55.6	1.3	yes	1 month - 5 months	8	5	3	2	0	0	0	1	1	0	0	0
CCc1c(C)[nH]c2c1C(=O)C(CN1CCOCC1)CC2 (centres undefined) [MOLINDONE]	0	0	yes	1 month	2	1	1	1	0	0	0	0	0	0	0	0
O=C(O)CCC(=O)c1ccc(-c2ccccc2)cc1 [FENBUFEN]	25	0	yes	10 days - 2 weeks	7	5	1	2	0	0	0	0	0	0	0	0
Cc1ncsc1CCCl [CLOMETHIAZOLE]	0	0	yes	3 days - 40 days	1	3	3	1	2	0	0	0	0	0	0	0
CCCCc1nc(Cl)c(CO)n1Cc1ccc(-c2ccccc2-c2nn[nH]n2)cc1 [LOSARTAN]	20	0	yes	2 weeks - 5 months	11	5	4	0	1	1	0	0	0	0	0	0
CCc1oc2ccccc2c1C(=O)c1cc(Br)c(O)c(Br)c1 [BENZBROMARONE]	0	0	yes	1.5 months - 5 months	1	5	5	0	4	0	0	0	0	0	0	0
Cc1c(Cl)cccc1Nc1ccccc1C(=O)O [TOLFENAMIC ACID]	0	0	yes	6 months	0	2	1	0	0	0	0	0	0	0	0	0
COC(=O)C(c1ccccc1)C1CCCCN1 (centres undefined) [METHYLPHENIDATE]	0	0	yes	2 days - 2 months	1	4	3	0	2	0	0	0	0	0	0	0
ENOXAPARIN	36	0	yes	12 hours - 2 weeks	8	0	0	0	0	0	0	0	0	0	0	0
NCCS [CYSTEAMINE]	0	0	yes	2 weeks - 2 years	0	1	1	0	0	0	0	0	1	0	0	0
Nc1cc(N2CCCCC2)nc(N)[n+]1[O-] [MINOXIDIL]	4.3	0	yes	3 days - 1 year	5	0	0	0	0	0	0	0	0	0	0	0
N[C@@H](C(=O)N[C@@H]1C(=O)N2C(C(=O)O)=C(Cl)CC[C@H]12)c1ccccc1 [LORACARBEF ANHYDROUS]	15	0	yes	1 week - 6 weeks	19	1	1	1	0	0	0	0	0	0	0	0
O=C(O)COC(=O)Cc1ccccc1Nc1c(Cl)cccc1Cl [ACECLOFENAC]	3.3	0	yes	1 week - 3 weeks	5	3	2	0	0	0	0	0	0	0	0	0
